This note sets out measurements from patent US12115209B2, “ROMO1-derived antimicrobial peptides including lysine substitution and variants thereof” (KOREA UNIVERSITY RESEARCH AND BUSINESS FOUNDATION, priority 2019, dated 2024).

B1: MPVAVGPYGQSQPSCFDRVKMGFVMGCAVGMAAGALFGTFSCLRIGMRGRELMGGIGKTMMQSGGTFGTFMAIGMGIRC (protein)
chain: MPVAVGPYGQSQPSCFDRVKMGFVMGCAVGMAAGALFGTFSCLRIGMRGRELMGGIGKTMMQSGGTFGTFMAIGMGIRC
modifications: Homo sapiens Romo1

No end group written: not given here.

The test system of one test is Staphylococcus aureus (ATCC 29213). The experiment in a line: Minimum bactericidal concentration (MBC) assay. The following applies: ATCC 29213; reaction 37° C. 1 hour; no bovine serum. Format: cell-based. How it is done: (§1) First, each of Pseudomonas aeruginosa (ATCC 27853) and Staphylococcus aureus (ATCC 29213) was cultured in 3% (w/v) TSB (tryptic soy broth) liquid medium at 37° C. and 200 rpm for 4 hours, and then further cultured under the same conditions for 3 hours to a concentration of 5×10^6 CFU/ml. Strain solutions were prepared by diluting each of the further cultured strains with SP (sodium phosphate; 10 mM sodium phosphate, 1% TSB) buffer to a final concentration of 2×10^5 CFU/ml.
(§2) Then, each peptide at varying concentrations (0 μg/ml to 300 μg/ml) was dispensed into each well of a 96-well microplate, and 100 μl (1×10^5 CFU/ml) of each of the prepared strain solutions was added thereto, mixed therewith, and allowed to react with the peptide in an incubator at 37° C. for 1 hour.
(§3) In addition, 30 g/L of TS (tryptic soy) and 15 g/L of agar were dissolved in distilled water and sterilized, and then 25 ml of the solution was poured onto a 100 mm round plate and solidified at room temperature for one day or more, thereby preparing a TS agar plate. 10 μl of each reaction solution of the peptide and the strain was plated on the TS agar plate at a constant size, and incubated in an incubator at 37° C. for 18 hours, and then colony formation on the plate was checked. The minimum bactericidal concentration was defined as the minimum concentration of the peptide at which no colony was formed, and the experimental results are shown in Table 1 below.
Turning to B1, the “MBC value (μg/ml) against Staphylococcus aureus” value is recorded as “Insoluble”.

The same test, now with this note: Tables 11-21, no unit printed.
Take “-KMMKKGGKFGTFMAIG-GIR [Peptide K4-d58K-d75M]”: the MBC Staphylococcus aureus was determined as 150 µg/mL.

For the molecule “-TMMQSGGTFGTFMAIGMGIR [Peptide 5878-d58K]”, the MBC Staphylococcus aureus stood at 300 µg/mL.

The molecule ATMMQSGGTFGTFMAIGMGIR [KU-5878-K58A] had an MBC Staphylococcus aureus greater than 300 µg/mL.

Molecule “K-MMQSGGTFGTFMAIGMGIR [Peptide 5878-d59T]” registered an MBC Staphylococcus aureus of 150 µg/mL.

The molecule KAMMQSGGTFGTFMAIGMGIR [KU-5878-T59A] displayed an MBC Staphylococcus aureus of 120 µg/mL.

In the case of “KK-MKKGGKFGTFMAIG-GIR [Peptide K4-d60M-d75M]”, the MBC Staphylococcus aureus came out at 200 µg/mL.

KKMMKKGGKFGT-MAIGMGIR [5878 K4-d70F] displayed an MBC Staphylococcus aureus of 140 µg/mL.

Regarding “KKMMKKGGKFGTFM-IG-GIR [Peptide K4-d72A-d75M]”, the MBC Staphylococcus aureus is 200 µg/mL.

Regarding “KKMMKKGGKFGTFMA-GMGIR [Peptide 5878-K4-d73I]”, the MBC Staphylococcus aureus was 300 µg/mL.

KRMMQSGGTFGTFMAIGMGIR [KU-5878-T59R] gave an MBC Staphylococcus aureus of 25 µg/mL.

KSMMQSGGTFGTFMAIGMGIR [KU-5878-T59S] had an MBC Staphylococcus aureus greater than 300 µg/mL.

Molecule “KT-MQS-GTFGTF--IG-GIR [5878-d60M, d64G, d71M, d72A, d75M]” showed an MBC Staphylococcus aureus of 200 µg/mL.

“KT-MQS-GTFGTFM-IG-GIR [5878-d60M, d64G, d72A, d75M]” had an MBC Staphylococcus aureus of 100 µg/mL.

KT-MQS-GTFGTFMAIGMGIR [5878-d60M, d64G] gave an MBC Staphylococcus aureus of 100 µg/mL.

The subject of the next test is Pseudomonas aeruginosa (ATCC 27853). The experiment in a line: Minimum bactericidal concentration (MBC) assay. The settings on record: ATCC 27853; reaction 37° C. 1 hour; no bovine serum. Format: cell-based. The method, then:
as §1, §2, §3
For the molecule B1, the “MBC value (μg/ml) against Pseudomonas aeruginosa” value is reported as “Insoluble”.

The same test, now with this note: Tables 11-21, no unit printed.
Turning to “-KMMKKGGKFGTFMAIG-GIR [Peptide K4-d58K-d75M]”, the MBC Pseudomonas aeruginosa came out at 150 µg/mL.

“-TMMQSGGTFGTFMAIGMGIR [Peptide 5878-d58K]” returned an MBC Pseudomonas aeruginosa of 300 µg/mL.

ATMMQSGGTFGTFMAIGMGIR [KU-5878-K58A] yielded an MBC Pseudomonas aeruginosa greater than 300 µg/mL.

Molecule “K-MMQSGGTFGTFMAIGMGIR [Peptide 5878-d59T]” gave an MBC Pseudomonas aeruginosa of 150 µg/mL.

The molecule KAMMQSGGTFGTFMAIGMGIR [KU-5878-T59A] had an MBC Pseudomonas aeruginosa of 150 µg/mL.

In the case of “KK-MKKGGKFGTFMAIG-GIR [Peptide K4-d60M-d75M]”, the MBC Pseudomonas aeruginosa is 200 µg/mL.

For the molecule KKMMKKGGKFGT-MAIGMGIR [5878 K4-d70F], the MBC Pseudomonas aeruginosa came out at 100 µg/mL.

On to “KKMMKKGGKFGTFM-IG-GIR [Peptide K4-d72A-d75M]”, for which the MBC Pseudomonas aeruginosa is 200 µg/mL.

Consider “KKMMKKGGKFGTFMA-GMGIR [Peptide 5878-K4-d73I]”, for which the MBC Pseudomonas aeruginosa turned out to be 300 µg/mL.

KRMMQSGGTFGTFMAIGMGIR [KU-5878-T59R] displayed an MBC Pseudomonas aeruginosa of 30 µg/mL.

The molecule KSMMQSGGTFGTFMAIGMGIR [KU-5878-T59S] showed an MBC Pseudomonas aeruginosa greater than 300 µg/mL.

Turning to “KT-MQS-GTFGTF--IG-GIR [5878-d60M, d64G, d71M, d72A, d75M]”, the MBC Pseudomonas aeruginosa was 200 µg/mL.

In turn, “KT-MQS-GTFGTFM-IG-GIR [5878-d60M, d64G, d72A, d75M]” displayed an MBC Pseudomonas aeruginosa of 120 µg/mL.

KT-MQS-GTFGTFMAIGMGIR [5878-d60M, d64G]: the MBC Pseudomonas aeruginosa amounted to 100 µg/mL.

A further test relates to Methicillin-resistant Staphylococcus aureus (MRSA, ATCC 33591). The experiment in a line: Minimum bactericidal concentration (MBC) assay. The format is cell-based. The following applies: Tables 11-21, no unit printed. The method, then:
First, each of Pseudomonas aeruginosa (ATCC 27853) and Staphylococcus aureus (ATCC 29213) was cultured in 3% (w/v) TSB (tryptic soy broth) liquid medium at 37° C. and 200 rpm for 4 hours, and then further cultured under the same conditions for 3 hours to a concentration of 5×10^6 CFU/ml. Strain solutions were prepared by diluting each of the further cultured strains with SP (sodium phosphate; 10 mM sodium phosphate, 1% TSB) buffer to a final concentration of 2×10^5 CFU/ml. […]
In addition, 30 g/L of TS (tryptic soy) and 15 g/L of agar were dissolved in distilled water and sterilized, and then 25 ml of the solution was poured onto a 100 mm round plate and solidified at room temperature for one day or more, thereby preparing a TS agar plate. 10 μl of each reaction solution of the peptide and the strain was plated on the TS agar plate at a constant size, and incubated in an incubator at 37° C. for 18 hours, and then colony formation on the plate was checked.
Specifically, each type of bacteria was cultured in 3% (w/v) TSB (tryptic soy broth) liquid medium at 37° C. and 200 rpm for 4 hours, and then further cultured under the same conditions for 3 hours to a concentration of 5×10^6 CFU/ml. Strain solutions were prepared by diluting each of the further cultured strains with SP buffer to a final concentration of 2×10^5 CFU/ml.
Then, the KU-5878 peptide at varying concentrations (0 μg/ml to 300 μg/ml) was dispensed into each well of a 96-well microplate, and 100 μl (1×10^5 CFU/ml) of each of the prepared strain solutions was added thereto, mixed therewith, and allowed to react with the peptide in an incubator at 37° C. for 1 hour.
In addition, 10 μl of each reaction solution of the peptide and the strain was plated on the TS agar plate at a constant size, and incubated in an incubator at 37° C. for 18 hours, and then colony formation on the plate was checked.
As to “-KMMKKGGKFGTFMAIG-GIR [Peptide K4-d58K-d75M]”, the MBC MRSA is 180 µg/mL.

Regarding “-TMMQSGGTFGTFMAIGMGIR [Peptide 5878-d58K]”, the MBC MRSA was greater than 300 µg/mL.

Molecule ATMMQSGGTFGTFMAIGMGIR [KU-5878-K58A] showed an MBC MRSA greater than 300 µg/mL.

In the case of “K-MMQSGGTFGTFMAIGMGIR [Peptide 5878-d59T]”, the MBC MRSA is 150 µg/mL.

KAMMQSGGTFGTFMAIGMGIR [KU-5878-T59A]: the MBC MRSA stood at 140 µg/mL.

As for “KK-MKKGGKFGTFMAIG-GIR [Peptide K4-d60M-d75M]”, the MBC MRSA was found to be 210 µg/mL.

Molecule KKMMKKGGKFGT-MAIGMGIR [5878 K4-d70F] registered an MBC MRSA of 110 µg/mL.

With “KKMMKKGGKFGTFM-IG-GIR [Peptide K4-d72A-d75M]”, the MBC MRSA came out at 200 µg/mL.

“KKMMKKGGKFGTFMA-GMGIR [Peptide 5878-K4-d73I]” yielded an MBC MRSA greater than 300 µg/mL.

Turning to KRMMQSGGTFGTFMAIGMGIR [KU-5878-T59R], the MBC MRSA amounted to 30 µg/mL.

With KSMMQSGGTFGTFMAIGMGIR [KU-5878-T59S], the MBC MRSA is greater than 300 µg/mL.

“KT-MQS-GTFGTF--IG-GIR [5878-d60M, d64G, d71M, d72A, d75M]” came in with an MBC MRSA of 200 µg/mL.

In turn, “KT-MQS-GTFGTFM-IG-GIR [5878-d60M, d64G, d72A, d75M]” had an MBC MRSA of 120 µg/mL.

Turning to KT-MQS-GTFGTFMAIGMGIR [5878-d60M, d64G], the MBC MRSA was determined as 110 µg/mL.

Another test has as its system CRPA. Description: Minimum bactericidal concentration (MBC) assay. The format is cell-based. The settings on record: Tables 11-21, no unit printed.
In the case of “-KMMKKGGKFGTFMAIG-GIR [Peptide K4-d58K-d75M]”, the MBC CRPA worked out at 160 µg/mL.

With “-TMMQSGGTFGTFMAIGMGIR [Peptide 5878-d58K]”, the MBC CRPA was 300 µg/mL.

The molecule ATMMQSGGTFGTFMAIGMGIR [KU-5878-K58A] came in with an MBC CRPA greater than 300 µg/mL.

As for “K-MMQSGGTFGTFMAIGMGIR [Peptide 5878-d59T]”, the MBC CRPA is 150 µg/mL.

For KAMMQSGGTFGTFMAIGMGIR [KU-5878-T59A], the MBC CRPA is 130 µg/mL.

In turn, “KK-MKKGGKFGTFMAIG-GIR [Peptide K4-d60M-d75M]” showed an MBC CRPA of 200 µg/mL.

KKMMKKGGKFGT-MAIGMGIR [5878 K4-d70F] registered an MBC CRPA of 160 µg/mL.

In the case of “KKMMKKGGKFGTFM-IG-GIR [Peptide K4-d72A-d75M]”, the MBC CRPA came to 200 µg/mL.

Molecule “KKMMKKGGKFGTFMA-GMGIR [Peptide 5878-K4-d73I]” came in with an MBC CRPA greater than 300 µg/mL.

The molecule KRMMQSGGTFGTFMAIGMGIR [KU-5878-T59R] gave an MBC CRPA of 30 µg/mL.

Consider KSMMQSGGTFGTFMAIGMGIR [KU-5878-T59S], for which the MBC CRPA was greater than 300 µg/mL.

In turn, “KT-MQS-GTFGTF--IG-GIR [5878-d60M, d64G, d71M, d72A, d75M]” came in with an MBC CRPA of 200 µg/mL.

For “KT-MQS-GTFGTFM-IG-GIR [5878-d60M, d64G, d72A, d75M]”, the MBC CRPA came to 120 µg/mL.

For the molecule KT-MQS-GTFGTFMAIGMGIR [5878-d60M, d64G], the MBC CRPA was 100 µg/mL.
